Laboratory results reported in ChEMBL document CHEMBL1201862, “PubChem BioAssay data set” (2004).
The source made the active and inactive calls.

Assays:
Cytochrome P450 2C9 = Cytochrome P450 2C9 (Homo sapiens, UniProt P11712)
Cytochrome P450 3A4 = Cytochrome P450 3A4 (Homo sapiens, UniProt P08684);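 also: CYP3A4 tested as one member of a cytochrome P450 panel screen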
[1] = target: T1, Zinc finger protein mex-5 (Caenorhabditis elegans, UniProt Q9XUB2); assay: potency of MEX-5 RNA-binding blockers – biochemical, C. elegans, fluorescence polarization, dose response (AID 1960)
T1 sequence (Q9XUB2 whole entry): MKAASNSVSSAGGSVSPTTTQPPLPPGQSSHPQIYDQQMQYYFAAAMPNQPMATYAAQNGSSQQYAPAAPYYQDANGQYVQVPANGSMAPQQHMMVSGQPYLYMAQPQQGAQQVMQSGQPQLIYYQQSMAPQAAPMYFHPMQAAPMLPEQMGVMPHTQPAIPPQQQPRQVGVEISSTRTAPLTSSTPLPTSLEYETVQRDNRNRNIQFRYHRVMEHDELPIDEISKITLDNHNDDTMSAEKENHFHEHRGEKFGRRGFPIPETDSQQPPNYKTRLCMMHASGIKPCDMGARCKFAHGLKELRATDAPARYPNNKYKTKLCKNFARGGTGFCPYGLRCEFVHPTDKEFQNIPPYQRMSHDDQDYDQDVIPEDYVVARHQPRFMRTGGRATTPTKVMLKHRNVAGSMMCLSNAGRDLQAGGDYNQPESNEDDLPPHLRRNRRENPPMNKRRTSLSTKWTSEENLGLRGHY

[2] = target: Corticotropin-releasing factor receptor 2/Corticotropin-releasing factor-binding protein (Homo sapiens, UniProt Q13324+P24387); assay: activators of CRF receptor 2 with binding protein – uHTS hits, confirmation (AID 602473); type: functional; conditions: read-out: EC50_Mean
[3] = target: T2, RNA-binding protein pos-1 (Caenorhabditis elegans, UniProt G5EF15); assay: disruptors of C. elegans POS-1 RNA interaction – biochemical, fluorescence polarization, dose response (AID 1964);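 also: purified POS-1 fused to maltose binding protein made in E. coli; potency of compounds blocking POS-1 binding to fluorescent RNA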
T2 sequence (G5EF15 whole entry): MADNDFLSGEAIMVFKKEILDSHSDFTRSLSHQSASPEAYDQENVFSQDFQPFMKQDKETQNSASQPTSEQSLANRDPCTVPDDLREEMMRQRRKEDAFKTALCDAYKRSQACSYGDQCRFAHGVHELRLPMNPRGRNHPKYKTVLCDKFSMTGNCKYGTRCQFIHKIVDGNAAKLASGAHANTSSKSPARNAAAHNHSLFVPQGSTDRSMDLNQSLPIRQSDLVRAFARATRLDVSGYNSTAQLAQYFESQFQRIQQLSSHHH

CAAX prenyl protease 2 = CAAX prenyl protease 2 (Homo sapiens, UniProt Q9Y256); assay: inhibition of Ras-converting CAAX protease Rce1 – biochemical, yeast membranes, quenched-peptide fluorescence, cherry-pick, dose response (AID 588849)
Sequence of CAAX prenyl protease 2 (Q9Y256 whole entry): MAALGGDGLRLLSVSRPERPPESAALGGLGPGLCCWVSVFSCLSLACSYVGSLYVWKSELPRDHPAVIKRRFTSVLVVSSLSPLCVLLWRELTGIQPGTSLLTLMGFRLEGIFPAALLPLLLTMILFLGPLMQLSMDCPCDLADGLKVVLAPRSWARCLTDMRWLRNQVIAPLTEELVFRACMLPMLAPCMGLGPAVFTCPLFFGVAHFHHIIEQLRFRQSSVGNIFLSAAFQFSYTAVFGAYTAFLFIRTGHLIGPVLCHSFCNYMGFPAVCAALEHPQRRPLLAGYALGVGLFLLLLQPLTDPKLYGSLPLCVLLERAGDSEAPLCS

[4] = loss of viability in HepG2 cells – cell-based, CellTiter-Glo, cherry-picked, cytotoxicity control for Shn3 inhibitor project, dose response (AID 624134); type: functional
[5] = non-specific 3'UTR reporter inhibition in Clone20-Shn3RL – cell-based, Renilla luciferase, cherry-picked, counter-screen for Shn3 inhibitor project, dose response (AID 624133); type: functional
[6] = Luminescence Cell-Based Dose Retest to Confirm Inhibitors of Cancer Stem Cells. [Related pubchem assays (depositor defined):AID2717, AID2721]; type: functional; conditions: Homo sapiens
[7] = Trypanosoma cruzi growth suppression in host cells – NIH3T3 host cells, beta-gal luminescence, confirmation (AID 2044); type: functional, cell-based;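 also: intracellular parasites grown in NIH/3T3 mouse fibroblasts as host cells; luminescent beta-galactosidase reporter signal from transgenic T. cruzi replicating inside host cells; inhibitors lower the luminescence signal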
A-375 [8] = assay: MITF: Counter assay: A375 proliferation Measured in Cell-Based System Using Plate Reader - 2084-03_Inhibitor_Dose_DryPowder_Activity. [Related pubchem assays (depositor defined):AID488944]; type: functional; conditions: Homo sapiens
[9] = target: T3, Microphthalmia-associated transcription factor (Homo sapiens, UniProt O75030); assay: reducers of TRPM1 reporter luminescence, concentration series – cell-based, SK-MEL-5, cherry-picked, set 3, MITF inhibitor project, dose response (AID 493073); type: functional;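 also: SK-MEL-5 melanoma cells with luciferase driven by the MITF target TRPM1 promoter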
T3 sequence (O75030 whole entry): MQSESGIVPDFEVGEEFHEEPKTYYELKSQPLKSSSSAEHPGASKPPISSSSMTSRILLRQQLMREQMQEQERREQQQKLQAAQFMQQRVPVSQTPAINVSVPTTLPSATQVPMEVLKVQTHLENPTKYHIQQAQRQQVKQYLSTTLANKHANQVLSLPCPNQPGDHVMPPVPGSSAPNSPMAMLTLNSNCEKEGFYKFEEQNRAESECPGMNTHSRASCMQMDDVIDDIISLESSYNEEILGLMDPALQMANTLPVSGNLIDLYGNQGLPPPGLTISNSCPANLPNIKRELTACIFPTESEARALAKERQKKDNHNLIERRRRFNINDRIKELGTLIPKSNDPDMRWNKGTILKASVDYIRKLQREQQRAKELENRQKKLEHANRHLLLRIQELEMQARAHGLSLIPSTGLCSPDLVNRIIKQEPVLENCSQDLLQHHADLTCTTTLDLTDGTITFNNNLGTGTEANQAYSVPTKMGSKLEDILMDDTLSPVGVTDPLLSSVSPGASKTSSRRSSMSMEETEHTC

[10] = NIH3T3 cell viability loss – ATP luminescence, mouse fibroblasts, counter-screen, dose response (AID 2010); type: functional, cell-based;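 also: cells exposed to compound for about 90 hours before reading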
[11] = reduction of Shn3 3'UTR-driven luciferase in osteoblasts – cell-based, Clone20 osteoblasts, firefly luciferase, cherry-picked, dose response (AID 624132); type: functional;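 also: firefly luciferase luminescence from reporter carrying the Shn3 3'UTR in osteoblasts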
A-375 [12] = assay: proliferation inhibition in MITF-low A375 cells – cell-based, cherry-pick samples, set 2, counter-screen for MITF modulator project, dose response (AID 540335); type: functional; conditions: Homo sapiens
Phospholipase D1 = Phospholipase D1 (Homo sapiens, UniProt Q13393); assay: cellular phospholipase D1 inhibition IC50 – cell-based, dose response (AID 602151); type: functional;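 also: cellular PLD1 assay in Calu-1 cells stimulated with PMA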
Sequence of Phospholipase D1 (Q13393 whole entry): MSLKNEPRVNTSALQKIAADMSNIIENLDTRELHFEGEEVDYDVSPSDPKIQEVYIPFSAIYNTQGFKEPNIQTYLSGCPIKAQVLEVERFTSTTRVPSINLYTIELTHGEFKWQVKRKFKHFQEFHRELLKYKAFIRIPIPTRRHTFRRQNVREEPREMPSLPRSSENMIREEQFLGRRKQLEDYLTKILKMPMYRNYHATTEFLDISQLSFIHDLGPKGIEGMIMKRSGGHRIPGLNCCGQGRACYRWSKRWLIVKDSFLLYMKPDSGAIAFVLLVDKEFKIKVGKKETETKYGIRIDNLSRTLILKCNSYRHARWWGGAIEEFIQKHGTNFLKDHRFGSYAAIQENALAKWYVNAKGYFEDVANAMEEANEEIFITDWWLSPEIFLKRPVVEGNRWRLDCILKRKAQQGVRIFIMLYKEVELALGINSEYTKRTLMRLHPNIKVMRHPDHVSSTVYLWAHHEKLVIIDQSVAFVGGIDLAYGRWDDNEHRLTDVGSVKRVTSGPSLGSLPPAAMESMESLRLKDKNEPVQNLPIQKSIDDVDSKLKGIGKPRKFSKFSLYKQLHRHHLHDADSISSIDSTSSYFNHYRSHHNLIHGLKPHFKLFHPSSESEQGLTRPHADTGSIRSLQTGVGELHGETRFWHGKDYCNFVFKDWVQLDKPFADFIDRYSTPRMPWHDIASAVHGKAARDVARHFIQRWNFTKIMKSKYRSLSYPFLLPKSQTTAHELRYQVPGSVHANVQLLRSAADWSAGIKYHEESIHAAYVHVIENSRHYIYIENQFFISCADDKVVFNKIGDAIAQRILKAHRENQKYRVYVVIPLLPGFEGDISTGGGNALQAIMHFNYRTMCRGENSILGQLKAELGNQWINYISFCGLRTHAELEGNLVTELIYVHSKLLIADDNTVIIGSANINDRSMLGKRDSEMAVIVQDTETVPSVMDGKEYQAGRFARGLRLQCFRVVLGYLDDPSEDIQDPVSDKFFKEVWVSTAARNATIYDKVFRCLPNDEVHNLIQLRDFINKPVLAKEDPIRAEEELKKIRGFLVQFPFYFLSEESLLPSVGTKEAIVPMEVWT

Phospholipase D2 = Phospholipase D2 (Homo sapiens, UniProt O14939); assay: cellular phospholipase D2 inhibition IC50 – cell-based, dose response (AID 602147); type: functional;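 also: cellular assay in HEK293 cells overexpressing GFP-tagged PLD2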
Aurora kinase B = Aurora kinase B (Homo sapiens, UniProt Q96GD4); type: functional
Sequence of Aurora kinase B (Q96GD4 whole entry): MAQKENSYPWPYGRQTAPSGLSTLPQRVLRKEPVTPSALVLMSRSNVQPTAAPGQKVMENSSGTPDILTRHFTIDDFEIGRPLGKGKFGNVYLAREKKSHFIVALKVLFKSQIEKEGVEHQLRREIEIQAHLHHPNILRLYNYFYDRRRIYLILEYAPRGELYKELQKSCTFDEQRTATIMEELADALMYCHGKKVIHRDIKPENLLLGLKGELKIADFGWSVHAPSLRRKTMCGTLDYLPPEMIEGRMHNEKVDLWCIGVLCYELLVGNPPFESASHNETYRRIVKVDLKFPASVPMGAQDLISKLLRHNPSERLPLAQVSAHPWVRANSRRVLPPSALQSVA

[13] = target: Calcium/calmodulin-dependent protein kinase type II subunit beta (Homo sapiens, UniProt Q13554); type: functional
[14] = target: Protein kinase C delta type (Homo sapiens, UniProt Q05655); type: functional
Sequence of Protein kinase C delta type (Q05655 whole entry): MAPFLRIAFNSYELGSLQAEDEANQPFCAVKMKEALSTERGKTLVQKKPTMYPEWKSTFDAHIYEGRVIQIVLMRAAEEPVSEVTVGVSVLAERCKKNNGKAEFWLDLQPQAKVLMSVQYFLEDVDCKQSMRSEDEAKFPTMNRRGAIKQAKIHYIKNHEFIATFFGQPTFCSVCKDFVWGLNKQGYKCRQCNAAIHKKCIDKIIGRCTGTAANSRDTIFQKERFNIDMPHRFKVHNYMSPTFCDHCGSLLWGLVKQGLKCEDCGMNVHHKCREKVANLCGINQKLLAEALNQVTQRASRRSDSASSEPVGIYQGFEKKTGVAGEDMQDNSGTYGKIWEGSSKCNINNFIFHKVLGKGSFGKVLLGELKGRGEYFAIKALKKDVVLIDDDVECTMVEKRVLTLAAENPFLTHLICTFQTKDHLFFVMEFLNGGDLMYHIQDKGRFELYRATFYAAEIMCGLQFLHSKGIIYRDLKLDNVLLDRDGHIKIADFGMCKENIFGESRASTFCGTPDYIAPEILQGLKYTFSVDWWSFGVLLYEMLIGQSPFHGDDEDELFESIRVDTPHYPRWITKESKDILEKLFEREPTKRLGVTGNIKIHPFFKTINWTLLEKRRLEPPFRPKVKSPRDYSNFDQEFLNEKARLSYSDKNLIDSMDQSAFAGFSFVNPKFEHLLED

[15] = target: Calcium/calmodulin-dependent protein kinase type II subunit gamma (Homo sapiens, UniProt Q13555); type: functional
[16] = target: Dual specificity protein kinase CLK4 (Homo sapiens, UniProt Q9HAZ1); type: functional
[17] = target: cAMP-dependent protein kinase catalytic subunit alpha (Homo sapiens, UniProt P17612); type: functional
[18] = target: Interleukin-1 receptor-associated kinase 4 (Homo sapiens, UniProt Q9NWZ3); type: functional
[19] = target: Mitogen-activated protein kinase kinase kinase kinase 4 (Homo sapiens, UniProt O95819); type: functional
[20] = target: Homeodomain-interacting protein kinase 2 (Homo sapiens, UniProt Q9H2X6); type: functional;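 also: measured within a kinome-wide kinase profiling panel, HIPK2 being one panel member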
Sequence of Homeodomain-interacting protein kinase 2 (Q9H2X6 whole entry): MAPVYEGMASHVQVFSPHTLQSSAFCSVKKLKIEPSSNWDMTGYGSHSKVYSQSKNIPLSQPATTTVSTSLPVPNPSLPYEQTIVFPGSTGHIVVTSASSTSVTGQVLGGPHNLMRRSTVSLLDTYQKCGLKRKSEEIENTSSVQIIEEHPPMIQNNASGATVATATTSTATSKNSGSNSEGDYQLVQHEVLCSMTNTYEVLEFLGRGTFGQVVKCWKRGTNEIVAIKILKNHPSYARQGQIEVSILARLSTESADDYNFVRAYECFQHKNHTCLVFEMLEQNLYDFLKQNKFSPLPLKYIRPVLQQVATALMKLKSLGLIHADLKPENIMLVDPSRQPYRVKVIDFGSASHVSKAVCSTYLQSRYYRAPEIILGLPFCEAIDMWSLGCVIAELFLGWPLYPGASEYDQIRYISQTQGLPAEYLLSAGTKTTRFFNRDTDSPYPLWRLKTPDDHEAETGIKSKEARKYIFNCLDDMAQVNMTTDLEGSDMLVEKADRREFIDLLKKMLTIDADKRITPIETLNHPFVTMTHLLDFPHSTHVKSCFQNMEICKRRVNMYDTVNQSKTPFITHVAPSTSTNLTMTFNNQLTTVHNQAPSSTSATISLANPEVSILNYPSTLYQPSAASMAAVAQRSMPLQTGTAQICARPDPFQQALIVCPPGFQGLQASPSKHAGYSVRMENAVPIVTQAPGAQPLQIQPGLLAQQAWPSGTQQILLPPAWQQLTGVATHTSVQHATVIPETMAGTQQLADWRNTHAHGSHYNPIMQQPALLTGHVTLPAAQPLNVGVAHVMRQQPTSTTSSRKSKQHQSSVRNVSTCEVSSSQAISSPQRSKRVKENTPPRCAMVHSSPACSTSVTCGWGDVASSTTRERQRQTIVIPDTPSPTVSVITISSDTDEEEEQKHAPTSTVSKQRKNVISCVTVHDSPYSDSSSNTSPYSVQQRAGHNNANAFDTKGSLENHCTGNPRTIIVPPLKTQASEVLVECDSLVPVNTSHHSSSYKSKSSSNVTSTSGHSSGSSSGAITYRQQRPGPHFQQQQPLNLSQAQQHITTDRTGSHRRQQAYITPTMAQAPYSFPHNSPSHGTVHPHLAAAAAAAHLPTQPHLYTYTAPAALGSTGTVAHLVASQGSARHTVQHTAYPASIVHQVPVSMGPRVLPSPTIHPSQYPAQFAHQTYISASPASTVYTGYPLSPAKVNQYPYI

[21] = target: Cell division cycle 7-related protein kinase (Homo sapiens, UniProt O00311); type: functional;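 also: value obtained from a kinome-wide kinase panel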
[22] = target: Serine/threonine-protein kinase pim-1 (Homo sapiens, UniProt P11309); type: functional
Sequence of Serine/threonine-protein kinase pim-1 (P11309 whole entry): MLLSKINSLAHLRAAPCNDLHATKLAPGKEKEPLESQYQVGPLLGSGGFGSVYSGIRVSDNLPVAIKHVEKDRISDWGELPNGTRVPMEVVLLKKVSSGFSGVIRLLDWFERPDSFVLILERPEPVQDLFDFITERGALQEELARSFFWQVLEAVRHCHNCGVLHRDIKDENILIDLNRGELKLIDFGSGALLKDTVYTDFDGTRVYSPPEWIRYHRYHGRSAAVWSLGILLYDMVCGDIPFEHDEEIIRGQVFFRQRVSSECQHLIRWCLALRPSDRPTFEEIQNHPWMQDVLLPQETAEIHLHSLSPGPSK

[23] = target: Glycogen synthase kinase-3 beta (Homo sapiens, UniProt P49841); type: functional;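 also: value comes from a broad kinome profiling panel, with GSK3B as the panel member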
Sequence of Glycogen synthase kinase-3 beta (P49841 whole entry): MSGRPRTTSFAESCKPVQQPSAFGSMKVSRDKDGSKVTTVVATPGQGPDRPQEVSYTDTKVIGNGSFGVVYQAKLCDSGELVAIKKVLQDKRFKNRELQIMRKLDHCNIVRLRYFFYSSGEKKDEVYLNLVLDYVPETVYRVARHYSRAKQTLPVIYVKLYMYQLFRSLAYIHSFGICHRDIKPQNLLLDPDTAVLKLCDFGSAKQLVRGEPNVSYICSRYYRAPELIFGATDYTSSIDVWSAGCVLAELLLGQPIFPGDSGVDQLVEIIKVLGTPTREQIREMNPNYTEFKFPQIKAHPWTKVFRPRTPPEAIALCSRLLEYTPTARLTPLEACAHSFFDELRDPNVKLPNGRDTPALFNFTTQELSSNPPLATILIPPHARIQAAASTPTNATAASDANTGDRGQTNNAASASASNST

[24] = target: T4, V-type proton ATPase subunit c' (Saccharomyces cerevisiae S288c, UniProt P32842); assay: Dose Response with BCECF Assay for V-ATPase inhibitors that increase vacuolar pH, Powder Set 1.; type: functional; conditions: read-out: EC50_MICROM
T4 sequence (P32842 whole entry): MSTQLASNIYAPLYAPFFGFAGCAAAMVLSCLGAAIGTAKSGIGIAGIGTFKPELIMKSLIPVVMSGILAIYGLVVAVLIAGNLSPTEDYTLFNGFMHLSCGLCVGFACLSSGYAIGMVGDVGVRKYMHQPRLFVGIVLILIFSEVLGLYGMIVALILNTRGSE

[25] = target: T4, V-type proton ATPase subunit c'; assay: Dose Response of Small Molecules that Regulate V-ATPase Proton Transport in Yeast using pHLuorin, Powder Set1.; type: functional; conditions: read-out: EC50_MICROM

Sequence of Cytochrome P450 3A4 (P08684 whole entry): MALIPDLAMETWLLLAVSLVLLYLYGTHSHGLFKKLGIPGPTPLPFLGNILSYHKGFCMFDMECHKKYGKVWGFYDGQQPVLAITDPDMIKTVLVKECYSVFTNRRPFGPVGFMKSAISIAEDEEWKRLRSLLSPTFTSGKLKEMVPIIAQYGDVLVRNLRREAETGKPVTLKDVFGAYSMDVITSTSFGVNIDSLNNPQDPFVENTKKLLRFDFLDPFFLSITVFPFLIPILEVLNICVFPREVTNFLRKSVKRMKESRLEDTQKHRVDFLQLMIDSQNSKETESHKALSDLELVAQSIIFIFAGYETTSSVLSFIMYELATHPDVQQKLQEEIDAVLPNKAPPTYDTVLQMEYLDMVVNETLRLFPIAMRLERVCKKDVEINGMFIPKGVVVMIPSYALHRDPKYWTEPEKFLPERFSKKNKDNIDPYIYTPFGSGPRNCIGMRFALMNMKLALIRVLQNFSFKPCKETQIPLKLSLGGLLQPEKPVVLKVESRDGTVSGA

CCCCC1(C)OC(=O)C(=Cc2ccc(N(CC)CC)cc2)C(=O)O1 (stereo unspecified)
> 300 µM (not active): EC50 [1] | EC50 [3]
inconclusive: AC50 (Cytochrome P450 2C9) | AC50 (Cytochrome P450 3A4) 0.126 µM
active: EC50 [2] 7.59 µM

Oc1ncccc1-c1nc2ccccc2n1Cc1cccc(Cl)c1
active: AC50 (CAAX prenyl protease 2) 5.23 µM

Cc1ccccc1C(=O)N1CCN(c2ccc(NC(=O)c3ccc([N+](=O)[O-])o3)cc2)CC1
active: AC50 [4] 20.5 µM | AC50 [5] 9.76 µM | AC50 [6] 1.8 µM | EC50 [7] 3.14 µM | AC50 (A-375 [8]) > 35 µM | AC50 [9] 6.2 µM | EC50 [10] 3.84 µM | AC50 [11] 0.864 µM | AC50 (A-375 [12]) > 35 µM

C[C@@H](CN1CCC(n2c(=O)[nH]c3ccc(F)cc32)CC1)NC(=O)c1ccc(F)cc1
active: IC50 (Phospholipase D1) 0.002 µM | IC50 (Phospholipase D2) 0.3 µM

Cc1cc(C(=O)NCCOCCOCCN)ccc1-c1cccc2c(CCCOc3cccc4ccccc34)c(C(=O)O)[nH]c12
active: Ki (Aurora kinase B) 3.98 µM | Ki [13] 5.01 µM | Ki [14] 2.51 µM | Ki [15] 3.98 µM

CC(C)(C)Oc1cc(-c2ccncc2)cc2[nH]nc(N)c12
active: Ki [16] 0.0126 µM | Ki [17] 0.158 µM | Ki [18] 0.251 µM | Ki [19] 0.251 µM | Ki [20] 0.398 µM | Ki [21] 0.00251 µM | Ki [22] 1.58 µM | Ki [23] 0.631 µM

COc1ccccc1N1CCN(C(=O)c2ccc([N+](=O)[O-])o2)CC1
active: EC50 [24] 24.3 µM | EC50 [25] 40.5 µM
